# Results: PMC7915026, “Sulfaguanidine Hybrid with Some New Pyridine-2-One Derivatives: Design, Synthesis, and Antimicrobial Activity against Multidrug-Resistant Bacteria as Dual DNA Gyrase and DHFR Inhibitors” (Antibiotics, 2021)
# Read-outs that look alike come from different tables or passages of the source.
# Columns and labels:
# [1] = system: Salmonella typhi (S. typhi ATCC 6539); assay: microbe, parasite or virus in culture; format: cell-based; details: Salmonella enterica, Salmonella typhi
# [2] = system: P. aeruginosa ATCC 27853; assay: MIC and MBC determination; format: cell-based; details: Pseudomonas aeruginosa, ATCC27853, P. aeruginosa
# [3] = system: E. coli ATCC BAA-196; assay: Inhibition zone against multidrug-resistant bacteria; further: test concentration or dose not given here; format: cell-based; details: MDRB E. coli ATCC BAA-196
# Text: (§1) Norfloxacin was used as a positive control for the multidrug resistance study.
# (§2) The antimicrobial activity performed at the bacteriology laboratory, Botany and Microbiology Department, Faculty of Science, Al-Azhar University, Cairo, Egypt. The inhibition zone (IZ) of the tested derivatives expressed as the diameter (mm) according to the agar plate diffusion method.
# [4] = system: S. aureus ATCC 33591; assay: as above; format: cell-based; details: MDRB S. aureus ATCC 33591
# Text: as §1, §2
# [5] = system: S. aureus ATCC 43300; assay: as above; format: cell-based; details: MDRB S. aureus ATCC 43300
# Text: as §1, §2
# [6] = system: P. aeruginosa ATCC BAA-2111; assay: as above; format: cell-based; details: MDRB P. aeruginosa ATCC BAA-2111
# Text: as §1, §2
# [7] = system: B. subtilis ATCC 6633; assay: Inhibition zone, paper disk/agar diffusion; further: test concentration or dose not given here; format: cell-based; details: B. subtilis; Na = no activity
# Text: as §2
# [8] = system: S. aureus ATCC 29213; assay: Inhibition zone, paper disk/agar diffusion; further: test concentration or dose not given here; format: cell-based; details: S. aureus; Na = no activity
# Text: as §2
# [9] = system: E. faecalis ATCC 29212; assay: Inhibition zone, paper disk/agar diffusion; further: test concentration or dose not given here; format: cell-based; details: E. faecalis; Na = no activity
# Text: as §2
# [10] = system: E. coli ATCC 25922; assay: Inhibition zone, paper disk/agar diffusion; format: cell-based; details: E. coli; Na = no activity
# Text: as §2
# [11] = system: P. aeruginosa ATCC 27853; assay: Inhibition zone, paper disk/agar diffusion; format: cell-based; details: P. aeruginosa; Na = no activity
# Text: as §2
# [12] = system: F. oxysporum (RCMB 008002); assay: Inhibition zone, paper disk/agar diffusion; format: cell-based; details: Na = no activity; further: test concentration or dose not given here
# Text: as §2
# [13] = system: B. subtilis ATCC 6633; assay: MIC and MBC determination; format: cell-based; details: Bacillus subtilis, ATCC6633, B. subtilis
# [14] = system: E. coli ATCC BAA-196; assay: MIC and MBC against multidrug-resistant strains; format: cell-based; details: E. coli ATCC BAA-196
# Text: as §1
# (§3) The experiment was repeating for three-times.
# [15] = system: S. aureus ATCC 33591; assay: MIC and MBC against multidrug-resistant strains; format: cell-based; details: Staphylococcus aureus, ATCC33591, S. aureus ATCC 33591
# Text: as §1, §3
# [16] = system: S. aureus ATCC 43300; assay: MIC and MBC against multidrug-resistant strains; format: cell-based; details: Staphylococcus aureus, ATCC43300, S. aureus ATCC 43300
# Text: as §1, §3
# [17] = system: P. aeruginosa ATCC BAA-2111; assay: MIC and MBC against multidrug-resistant strains; format: cell-based; details: P. aeruginosa ATCC BAA-2111
# Text: as §1, §3
# [18] = system: E. coli ATCC 25922; assay: MIC and MBC determination; format: cell-based; details: Escherichia coli, ATCC25922, E. coli
# [19] = system: E. faecalis ATCC 29212; assay: MIC and MBC determination; format: cell-based; details: Enterococcus faecalis, ATCC29212, E. faecalis
# [20] = system: C. albicans (ATCC 10231); assay: MIC and MFC determination; format: cell-based
# [21] = biological target: S. aureus DNA gyrase (Staphylococcus aureus, UniProt P0A0K8+P20831); assay: In vitro DNA gyrase supercoiling enzymatic assay; format: biochemical
# S. aureus DNA gyrase, sequence (P20831 whole entry): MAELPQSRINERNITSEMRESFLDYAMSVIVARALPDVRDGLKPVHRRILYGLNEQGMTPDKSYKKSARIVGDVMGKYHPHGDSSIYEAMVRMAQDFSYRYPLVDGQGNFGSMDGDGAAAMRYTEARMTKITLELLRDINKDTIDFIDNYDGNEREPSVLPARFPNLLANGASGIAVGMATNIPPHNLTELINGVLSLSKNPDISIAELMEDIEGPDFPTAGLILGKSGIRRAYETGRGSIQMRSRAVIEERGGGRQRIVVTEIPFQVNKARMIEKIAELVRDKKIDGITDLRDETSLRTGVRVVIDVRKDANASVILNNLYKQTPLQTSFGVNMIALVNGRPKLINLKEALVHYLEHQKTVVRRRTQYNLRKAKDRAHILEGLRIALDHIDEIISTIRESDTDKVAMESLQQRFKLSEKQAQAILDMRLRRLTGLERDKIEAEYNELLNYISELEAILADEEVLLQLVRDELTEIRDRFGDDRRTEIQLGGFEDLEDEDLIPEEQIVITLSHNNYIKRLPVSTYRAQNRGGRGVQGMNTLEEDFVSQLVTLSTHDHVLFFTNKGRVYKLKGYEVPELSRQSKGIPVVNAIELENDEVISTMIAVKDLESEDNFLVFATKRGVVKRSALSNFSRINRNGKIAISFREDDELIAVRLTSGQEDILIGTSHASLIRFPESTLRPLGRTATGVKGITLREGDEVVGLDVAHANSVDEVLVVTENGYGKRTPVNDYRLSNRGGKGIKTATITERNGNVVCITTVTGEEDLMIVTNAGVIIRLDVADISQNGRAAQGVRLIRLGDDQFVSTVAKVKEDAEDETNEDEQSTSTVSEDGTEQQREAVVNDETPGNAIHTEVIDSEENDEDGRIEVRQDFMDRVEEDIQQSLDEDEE
# S. aureus DNA gyrase, sequence (P0A0K8 whole entry): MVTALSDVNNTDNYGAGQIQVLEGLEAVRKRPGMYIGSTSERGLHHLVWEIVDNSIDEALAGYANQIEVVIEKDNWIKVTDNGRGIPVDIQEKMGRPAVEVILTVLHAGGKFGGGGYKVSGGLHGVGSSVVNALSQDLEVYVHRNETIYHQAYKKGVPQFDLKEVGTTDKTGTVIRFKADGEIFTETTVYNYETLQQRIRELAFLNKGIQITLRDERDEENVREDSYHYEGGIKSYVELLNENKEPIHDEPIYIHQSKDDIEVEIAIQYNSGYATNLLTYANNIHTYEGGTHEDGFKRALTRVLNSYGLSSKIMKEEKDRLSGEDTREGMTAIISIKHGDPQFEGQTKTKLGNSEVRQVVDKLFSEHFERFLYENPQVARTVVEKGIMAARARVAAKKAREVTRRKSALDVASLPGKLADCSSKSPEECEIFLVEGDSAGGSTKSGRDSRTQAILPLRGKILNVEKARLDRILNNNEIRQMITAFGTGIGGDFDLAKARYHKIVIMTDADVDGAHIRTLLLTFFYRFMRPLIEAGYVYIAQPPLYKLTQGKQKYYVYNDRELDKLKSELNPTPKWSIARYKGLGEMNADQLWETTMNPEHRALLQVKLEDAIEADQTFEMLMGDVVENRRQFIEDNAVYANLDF
# [22] = system: F. oxysporum (RCMB 008002); assay: MIC and MFC determination; format: cell-based
# [23] = system: S. aureus ATCC 29213; assay: MIC and MBC determination; format: cell-based; details: Staphylococcus aureus, ATCC29213, S. aureus
# Wherever Mean Diameter of Inhibition Zone is given: test concentration or dose not given here.
structure (smiles),measurement,setting,value
"COc1ccc(/C=C(\C#N)C(=O)Nc2ccc(S(=O)(=O)NC(=N)N)cc2)cc1 [Compound 2b, N-(4-(N-Carbamimidoylsulfamoyl)phenyl)-2-cyano-3-(4-methoxyphenyl) acrylamide]",MBC,[1]; read-out: MBC,70.4 ± 0.85 µM
same,MIC,[1]; read-out: MIC,39.1 ± 0.36 µM
same,MBC,[2]; read-out: MBC,133 ± 1.02 µM
same,MIC,[2]; read-out: MIC,78.2 ± 1.24 µM
same,Mean Diameter of Inhibition Zone,[3],22 ± 0.85 mm
same,Mean Diameter of Inhibition Zone,[4],21 ± 0.11 mm
same,Mean Diameter of Inhibition Zone,[5],20 ± 0.34 mm
same,Mean Diameter of Inhibition Zone,[6],19 ± 0.16 mm
same,Mean Diameter of the Inhibition Zone,[7],25 ± 0.87 mm
same,Mean Diameter of the Inhibition Zone,[8],21 ± 0.3 mm
same,Mean Diameter of the Inhibition Zone,[9],24 ± 0.35 mm
same,Mean Diameter of the Inhibition Zone,[10],23 ± 0.2 mm
same,Mean Diameter of the Inhibition Zone,[11],21 ± 0.55 mm
same,Mean Diameter of the Inhibition Zone,[12],17 ± 0.50 mm
same,MBC,[13]; read-out: MBC,35.2 ± 1.25 µM
same,MIC,[13]; read-out: MIC,19.6 ± 0.39 µM
same,MBC,[14],9.38 ± 0.74 µM
same,MIC,[14],4.69 ± 0.45 µM
same,MBC,"[14]; Escherichia coli, ATCCBAA196, read-out: MBC",9.38 µM
same,MIC,"[14]; Escherichia coli, ATCCBAA196, read-out: MIC",4.69 µM
same,MBC,[15]; read-out: MBC,18.8 ± 0.21 µM
same,MIC,[15]; read-out: MIC,9.38 ± 0.35 µM
same,MBC,[16]; read-out: MBC,39.1 ± 0.54 µM
same,MIC,[16]; read-out: MIC,19.6 ± 0.52 µM
same,MBC,[17],18.77 ± 0.87 µM
same,MIC,[17],9.38 ± 0.47 µM
same,MBC,"[17]; Pseudomonas aeruginosa, ATCCBAA2111, read-out: MBC",18.8 µM
same,MIC,"[17]; Pseudomonas aeruginosa, ATCCBAA2111, read-out: MIC",9.38 µM
same,MBC,[18]; read-out: MBC,219.1 ± 2.14 µM
same,MIC,[18]; read-out: MIC,156 ± 2.65 µM
same,MBC,[19]; read-out: MBC,46.3 ± 0.74 µM
same,MIC,[19]; read-out: MIC,23.1 ± 0.61 µM
same,MFC/MIC,[20],<2
same,MFC,"[20]; Candida albicans, ATCC10231, read-out: MFC",133 ± 1.65 µM
same,MIC,"[20]; Candida albicans, ATCC10231, read-out: MIC",78.2 ± 0.95 µM
same,IC50,[21],29.1 ± 1.93 µM
same,MFC/MIC,[22],<2
same,MFC,"[22]; Fusarium oxysporum, RCMB008002, read-out: MFC",222.3 ± 1.65 µM
same,MIC,"[22]; Fusarium oxysporum, RCMB008002, read-out: MIC",139 ± 1.53 µM
same,MBC,[23]; read-out: MBC,78.2 ± 0.87 µM
same,MIC,[23]; read-out: MIC,39.1 ± 1.67 µM
